This note sets out measurements from patent US20200155609A1, “COMPOSITIONS AND METHODS OF MAKING EXPANDED HEMATOPOIETIC STEM CELLS USING PTEN INHIBITORS” (Transfusion Health LLC, priority 2017, published 2020).

For assay [1], the system named is CD34+ cells isolated from donor non-mobilized peripheral blood (CD133+ and CD90+ cells). The assay can be described thus: Relative expansive effect of SF1670 derivatives, fold change days 2 to 7, non-mobilized peripheral blood CD34+ cells (Example 21). It is filed as cell-based, human. Particulars: fold change days 2 to 7 normalized to basic and +SF (500 nM SF1670) controls. How it is done:
CD34+ cells were isolated from donor peripheral blood as described in Example 20. Isolated CD34+ cells were incubated in an in vitro culture media of Alpha MEM without phenol red, 10% (v/v) heat inactivated fetal bovine serum (FBS). When testing the substituted derivatives of 9,10-dihydrophenathrene and phenanthrene (+Derivative conditions), two internal controls were used: a positive control (+SF conditions) and a baseline control (i.e, basic conditions (“cytokines only”)). The media components and concentrations used for the compounds tested are described in Table 6. The culture also included an antibiotic solution that includes penicillin, streptomycin, and amphotericin B to avoid contamination. Controls were included because the amount of expansion in samples obtained varies from individual to individual.
(§1) Cultures were incubated at 3% oxygen (controlled by nitrogen) and 5% CO2.
Small molecule components were added separately and fresh each time the media needs to be refreshed. Cytokines can be stored together. Media renewal should occur at least every few days.
On the days indicated one-half of the volume of the cell culture was removed for data analysis (flow cytometry using a BD FACS ARIA II). The culture volume was replenished with fresh media according to the conditions tested. The data reported accounts for the dilution factor introduced in this procedure.
Separate experiments were performed for each compound tested (Compound 1.001-1.012).
Table 7, below, summarizes the relative expansive effect of Compound 1.001 to 1.012 (sample compounds) at the indicated concentration. The data in Table 7 is reported as the relative expansive effect. The relative expansive effect is a normalized value of the fold changes shown in each of the figures. It is calculated as shown below: […]

The test system is the same in assay [2]. Description: Relative expansive effect (relative cell number) of SF1670 derivatives, non-mobilized peripheral blood CD34+ cells, cytokines with IL-6 (Example 22). In kind it is cell-based, human. How it is done:
CD34+ cells were isolated from donor peripheral blood as described in Example 20. Isolated CD34+ cells were incubated in an in vitro culture media of Alpha MEM without phenol red, 10% (v/v) heat inactivated fetal bovine serum (FBS). When testing the substituted derivatives of 9,10-dihydrophenathrene (+Derivative conditions), two internal controls were used: a positive control (+SF conditions) and a baseline control (i.e, basic conditions (“cytokines only”)). The media components and concentrations used for the compounds tested are described in Table 8. The culture also included an antibiotic solution that includes penicillin, streptomycin, and amphotericin B to avoid contamination. Controls were included because the amount of expansion in samples obtained varies from individual to individual.
as §1
After the indicated number of days one-half of the volume of the cell culture was removed for data analysis (flow cytometry using a BD FACS ARIA II). The culture volume was replenished with fresh media according to the conditions tested.
Separate experiments were performed for each compound tested (Compound 1.014-1.016).
Table 9, below, summarizes the relative expansive effect of Compound 1.014 to 1.016 (sample compounds) at the indicated concentration. The data in Table 9 is reported as the relative cell number. The relative cell number is the normalized value of cell counts after the indicated number of days in culture. It is calculated as shown below: […]

Where [3] appears, read: 7 days in culture, 1 μM sample compound.
[4] abbreviates: 7 days in culture, 2 μM sample compound.
The mark [5] stands for this setting: 5 days in culture, 0.25 μM sample compound.

In the case of `CC(C)(C)NC(=O)c1ccc2c(c1)C(=O)C(=O)c1ccccc1-2` [Compound 1.001, N-(tert-butyl)-9,10-dioxo-9,10-dihydrophenanthrene-2-carboxamide], in assay [1] (0.5 μM sample compound), the “CD90 effect (relative expansive effect of CD90+ cells)” value is on record as “++ (0.2 ≤ x < 0.55)” and the “CD133 effect (relative expansive effect of CD133+ cells)” value is “+ (x < 0.2)”.

As to `CC(C)(C)C(=O)CNc1ccc2c(c1)C(=O)C(=O)c1ccccc1-2` [Compound 1.002, 2-((3,3-dimethyl-2-oxobutyl)amino)phenanthrene-9,10-dione], in assay [1] (1 μM sample compound), the “CD90 effect (relative expansive effect of CD90+ cells)” value is reported as “++ (0.2 ≤ x < 0.55)” and the “CD133 effect (relative expansive effect of CD133+ cells)” value was “+ (x < 0.2)”.

For `Nc1ccc2c(c1)C(=O)C(=O)c1cc(NC(=O)CC(=O)O)ccc1-2` [Compound 1.003, 3-((7-amino-9,10-dioxo-9,10-dihydrophenanthren-2-yl)amino)-3-oxopropanoic acid], in assay [1] (0.125 μM sample compound), the “CD90 effect (relative expansive effect of CD90+ cells)” value is reported as “++ (0.2 ≤ x < 0.55)” and the “CD133 effect (relative expansive effect of CD133+ cells)” value was “+ (x < 0.2)”.

In the case of `CC(C)(C)CC(=O)Nc1ccc2c(c1)C(=O)C(=O)c1ccccc1-2` [Compound 1.004, N-(9,10-dioxo-9,10-dihydrophenanthren-2-yl)-3,3-dimethylbutanamide], in assay [1] (0.125 μM sample compound), the “CD90 effect (relative expansive effect of CD90+ cells)” value is on record as “++ (0.2 ≤ x < 0.55)” and the “CD133 effect (relative expansive effect of CD133+ cells)” value is recorded as “+ (x < 0.2)”.

In the case of `CCCCCCCCCC(=O)Nc1ccc2c(c1)C(=O)C(=O)c1ccccc1-2` [Compound 1.005, N-(9,10-dioxo-9,10-dihydrophenanthren-2-yl)decanamide], in assay [1] (2 μM sample compound), the “CD90 effect (relative expansive effect of CD90+ cells)” value is recorded as “++ (0.2 ≤ x < 0.55)” and the “CD133 effect (relative expansive effect of CD133+ cells)” value is “+ (x < 0.2)”.

Turning to `CC(=O)Nc1ccc2c(c1)C(=O)C(=O)c1ccccc1-2` [Compound 1.006, N-(9,10-dioxo-9,10-dihydrophenanthren-2-yl)acetamide], in assay [1] (0.5 μM sample compound), the “CD90 effect (relative expansive effect of CD90+ cells)” value is “++ (0.2 ≤ x < 0.55)” and the “CD133 effect (relative expansive effect of CD133+ cells)” value was “+ (x < 0.2)”.

As to `CC(C)(C)C(=O)Nc1ccc2c(c1)C(=O)C(=O)c1cc(N)ccc1-2` [Compound 1.007, N-(7-amino-9,10-dioxo-9,10-dihydrophenanthren-2-yl)pivalamide], in assay [1] (1 μM sample compound), the “CD90 effect (relative expansive effect of CD90+ cells)” value is “++ (0.2 ≤ x < 0.55)” and the “CD133 effect (relative expansive effect of CD133+ cells)” value is “++ (0.2 ≤ x < 0.55)”.

Turning to `CCC(C)(C)C(=O)Nc1ccc2c(c1)C(=O)C(=O)c1ccccc1-2` [Compound 1.008, N-(9,10-dioxo-9,10-dihydrophenanthren-2-yl)-2,2-dimethylbutanamide], in assay [1] (1 μM sample compound), the “CD90 effect (relative expansive effect of CD90+ cells)” value was “++ (0.2 ≤ x < 0.55)” and the “CD133 effect (relative expansive effect of CD133+ cells)” value is on record as “++ (0.2 ≤ x < 0.55)”.

Turning to `O=C1C(=O)c2cc(NC(=O)C(Cl)(Cl)Cl)ccc2-c2ccccc21` [Compound 1.009, 2,2,2-trichloro-N-(9,10-dioxo-9,10-dihydrophenanthren-2-yl)acetamide], in assay [1] (0.5 μM sample compound), the “CD90 effect (relative expansive effect of CD90+ cells)” value was “+++ (0.55 ≤ x < 0.9)” and the “CD133 effect (relative expansive effect of CD133+ cells)” value was “++ (0.2 ≤ x < 0.55)”.

`CCCC(C)(C)C(=O)Nc1ccc2c(c1)C(=O)C(=O)c1ccccc1-2` [Compound 1.010, N-(9,10-dioxo-9,10-dihydrophenanthren-2-yl)-2,2-dimethylpentanamide]: in assay [1] (0.125 μM sample compound), the “CD90 effect (relative expansive effect of CD90+ cells)” value is listed as “+++ (0.55 ≤ x < 0.9)” and the “CD133 effect (relative expansive effect of CD133+ cells)” value is on record as “+ (x < 0.2)”.

On to `O=C1C(=O)c2ccc(NC(=O)C(Cl)(Cl)Cl)cc2-c2ccccc21` [Compound 1.011, 2,2,2-trichloro-N-(9,10-dioxo-9,10-dihydrophenanthren-3-yl)acetamide], for which, in assay [1] (0.25 μM sample compound), the “CD90 effect (relative expansive effect of CD90+ cells)” value is reported as “++++ (0.9 ≤ x < 1.25)” and the “CD133 effect (relative expansive effect of CD133+ cells)” value was “++ (0.2 ≤ x < 0.55)”.

Take `CC(=O)Oc1c(OC(C)=O)c2cc(NC(=O)C(C)(C)C)ccc2c2ccccc12` [Compound 1.012, 2-pivalamidophenanthrene-9,10-diyl Diacetate]: in assay [1] (0.5 μM sample compound), the “CD90 effect (relative expansive effect of CD90+ cells)” value is listed as “+++++ (1.25 ≤ x)” and the “CD133 effect (relative expansive effect of CD133+ cells)” value is listed as “++++ (0.9 ≤ x < 1.25)”.

Consider `COCCOc1c(O)c2cc(NC(=O)C(C)(C)C)ccc2c2ccccc12` [Compound 1.014, N-(10-hydroxy-9-(2-methoxyethoxy)phenanthren-2-yl)pivalamide], for which, in assay [2] (setting [3]), the “CD90 effect (relative expansive effect, relative cell number)” value is recorded as “++ (0.2 ≤ x < 0.55)” and the “CD133 effect (relative expansive effect, relative cell number)” value is reported as “++ (0.2 ≤ x < 0.55)”.

`O=C(COCc1ccccc1)Nc1ccc2c(c1)C(=O)C(=O)c1ccccc1-2` [Compound 1.015, 2-(benzyloxy)-N-(9,10-dioxo-9,10-dihydrophenanthren-2-yl)acetamide]: in assay [2] (setting [4]), the “CD90 effect (relative expansive effect, relative cell number)” value was “+++++ (1.25 ≤ x)” and the “CD133 effect (relative expansive effect, relative cell number)” value is reported as “+++ (0.55 ≤ x < 0.9)”.

In the case of `CC(C)(C)C(=O)Nc1ccc2c(c1)C(=O)C(=NO)c1ccccc1-2` [Compound 1.016, N-(9-(hydroxyimino)-10-oxo-9,10-dihydrophenanthren-2-yl)pivalamide], in assay [2] (setting [5]), the “CD90 effect (relative expansive effect, relative cell number)” value was “++ (0.2 ≤ x < 0.55)” and the “CD133 effect (relative expansive effect, relative cell number)” value is reported as “++ (0.2 ≤ x < 0.55)”.
